2 compounds from patent US6030960A, “Method of treating hepatitis virus infections” (priority 1998, dated 2000) can be followed below.

Data set [1] relates to Hepatitis B virus. Nature of the data set: Effects of CP-51 on HBV-induced DNA and RNA synthesis (Table 4). The class given is cell-based. As to conditions: for mrna remaining at 10 µM / activity at 10 µM / inhibition at 10 µM: Hepatitis B virus. As to the method:
(§1) HEP-G2 cells persistently infected with HBV were treated daily with fresh D-MEM containing 20% FBS and 10 μM compound. After 9 days incubation and treatment, the overlay medium was harvested to assay the quantity of Hepatitis B virus s antigen (HBsAg) and HBeAg by EIA (Abbott Laboratories). The overlay medium was diluted to levels of antigen in the linear range of the assay. Standard curves using dilutions of positive HBsAg and HBeAg controls were included in each assay. Virion DNA was assayed using the method set forth in Korba and Gerin, Antiviral Res., 19, 5,5-70 (1992), incorporated by reference herein. HBV DNA was extracted from the overlay medium containing virus particles and analyzed by a slot-blot hybridization technique using ^32 P-labelled 3.2 Kb Eco R1 HBV DNA fragment by comparisons to HBV standards present on nitrocellulose filters using an AMBIS beta scanner. EC90 values (90% effective concentration, i.e., drug concentration which induces a 90% decrease in the levels of HBV DNA replication intermediates in treated versus control cells) were calculated by linear regression analysis. The relative levels of HBsAg, HBeAg and virion DNA were calulated as a percentage of the average levels obtained from the untreated controls.
Experiments were performed to determine the effects of CP-51 on HBV induced DNA and RNA syntheses. HEP-G2 cells persistently infected with HBV were treated daily with fresh D-MEM containing 20% FBS and 10 μM compound. After 9 days incubation and treatment the cells and overlay medium were harvested separately to assay the quantity of nucleic acids. Details of the methodology of the assays are given in Section B above. Extracellular virion DNA in untreated cells ranged from 50 to 150 pg/ml in the overlay medium. Intracellular HBV DNA replication intermediates (RI) in untreated cells ranged from 50 to 100 pg/μg cell DNA. Hybridization analysis results in about 1 pg intracellular HBV DNA/μg cellular DNA to 2-3 genomic copies per cell and 1.0 pg of extracellular HBV DNA/ml overlay medium to […] viral particles/ml. HBV RNA was analyzed by Northern blot hybridization analysis using a ^32 P-labeled 3.2 Kb gel-purified cloned genomic probe. Quantitive analysis of intracellular HBV DNA anc 14BV RNA was performed using an AMBIS beta scanner.

Another data set concerns HIV-1. The class given is in vivo. The settings on record: rat, single oral dose of 15 mg/kg by gavage. As to the method: The biologic activity of alkyl lipid CP-51 was evaluated in vivo. Sprague Dawley rats were fasted for 18 hours and received a single oral dose of 15 mg/kg of the alkyl lipid CP-51 by gavage. An in-dwelling carotid catheter was used to harvest whole blood at various times post-dose. The plasma containing the alkyl lipid was diluted 1:2 to 1:128 in phosphate buffered saline and assayed for biologic activity using the HIV-1 syncytial plaque test. CEM-SS cell monolayers were infected with HIV-1 and overlaid with RPMI-1640 medium containing serial dilutions of plasma. After incubation for five days at 37° C., the number of HIV-1 syncytial plaques was counted as previously described (Kucera et al., AIDS Res. Human Retroviruses, 6: 491-501, (1990)).

Data set [2] has as its system granulocyte/macrophage (CFU-GM). Nature of the data set: Cytotoxicity: inhibition of mouse granulocyte/macrophage (CFU-GM) colony formation. The class given is cell-based. The settings on record: read-out: inhibitory concentration 50% for colony formation (IC50). On the procedure:
CP-51 and AZT were assayed for cytotoxicity by inhibition of mouse precursor erythrocyte (CFU-E) and granulocyte/macrophage (CFU-GM) cell colony formation. Mouse bone marrow precursor cells were suspended in soft-agar-RPMI-1640 medium supplmented with cell growth factors and serial concentrations of alkyl lipid.

Data set [3] has as its system Hepatitis B virus. Nature of the data set: CP-51 against HBV-induced antigen syntheses in HEP-G2 cells persistently infected with HBV (Table 3). The class given is cell-based. The settings on record: for activity at 10 µM / inhibition at 10 µM: Hepatitis B virus; for activity at 10 µM: HepG2, 216 h; for inhibition at 10 µM: HepG2. As to the method: as §1
In contrast, CP-51 inhibited HBeAg and HBcAg syntheses by 76 and 68%, respectively.

The subject of data set [4] is HEP G2 cells persistently infected with HBV. In words: Cytotoxicity in HBV persistently infected human HEP G2 cells, neutral red dye uptake (Table 5). The class given is cell-based. The method, boiled down: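 HBV-transfected HEP-G2 monolayers in RPMI-1640 were given compound at four serial concentrations in triplicate for nine days at 37 °C, with periodic medium replacement. Toxicity from 0.01% neutral red uptake (A510), as percent of nine untreated control wells on the same plate.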

The nature of data set [5]: Cytotoxicity of alkyl lipids, neutral red dye uptake (Table 1). The class given is cell-based. The settings on record: human, hep-g2 cells. The method, boiled down:
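HepG2 cells carrying tandem HBV genomes, with a G418-resistance plasmid, were given four serial compound concentrations in triplicate in RPMI-1640 for nine days at 37° C, with periodic medium replacement. Viability was measured by 0.01% neutral red uptake (A510) and expressed as percent of untreated control wells ±SD.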

One may read the inhibition as the change of the read-out against control, counted positive when it falls. One may read the viability as a read-out of living cells in per cent, often relative to untreated cells.

In brackets after ≈: the same amount, converted by molar mass. Entries after “also recorded” stand apart in the source; their conditions may differ. Read-outs that look alike come from different tables or passages of the source.

Regarding `CCCCCCCCCCCCCCCCCC(=O)NCC(COP(=O)([O-])OCC[N+](C)(C)C)OCC` (racemic) [CP-51, rac-3-octadecanamido-2-ethyoxy-1-propylphosphocholine], the “effect on HBV-induced RNA syntheses” value in the data set on Hepatitis B virus [1] (10 μM, in words) is recorded as “no significant effects”. The mrna remaining at 10 µM stood at 112% in the data set with Hepatitis B virus [1] (HepG2, 216 h, 10 μM, 9 days treatment, read-out: Relative Level of 2.1 Kb RNA); 84% with Hepatitis B virus [1] (HepG2, 216 h, 10 μM, 9 days treatment, read-out: Relative Level of 3.6 Kb RNA); 112% in the data set with Hepatitis B virus [1] (HepG2, 216 h, 10 μM, 9 days treatment, read-out: Relative Level of Total RNA). Moreover, the activity at 10 µM in the data set on Hepatitis B virus [1] (HepG2, 216 h, 10 μM, 9 days treatment, read-out: Relative Level of 3.2 Kb DNA) turned out to be 42%; in the data set on Hepatitis B virus [1] (HepG2, 216 h, 10 μM, 9 days treatment, read-out: Relative Level of Virion DNA) it was 2%; in the data set on Hepatitis B virus [1] (HepG2, 216 h, 10 μM, 9 days treatment, replication intermediates, read-out: Relative Level of HBV RI), 12%; with Hepatitis B virus [3] (10 μM, 9 days treatment, read-out: Relative Levels of HBcAg) it was 32%; in the data set with Hepatitis B virus [3] (10 μM, 9 days treatment, read-out: Relative Levels of HBeAg), 24%; with Hepatitis B virus [3] (10 μM, 9 days treatment, read-out: Relative Levels of HBsAg), 88%. For the same compound, the inhibition at 10 µM with Hepatitis B virus [1] (HepG2, 216 h, 10 μM, read-out: inhibition of 3.2 Kb DNA synthesis) turned out to be 58%; in the data set on Hepatitis B virus [1] (10 μM, read-out: inhibition of replication intermediates (RI) DNA synthesis), 88%; with Hepatitis B virus [1] (10 μM, read-out: inhibition of virion DNA synthesis) it was 98%; in the data set with Hepatitis B virus [3] (10 μM, read-out: inhibition of HBcAg synthesis), 68%; in the data set on Hepatitis B virus [3] (10 μM, read-out: inhibition of HBeAg synthesis) it was 76%. For the same compound, the “selectivity for HBV-induced antigens and nucleic acids” value in the data set with Hepatitis B virus [1] (in words) is “selective for inhibiting HBV-induced HBcAg, HBeAg, virion DNA and HBV RI syntheses but not HBsAg or RNA syntheses”. Also, in the data set with HIV-1, the “absorption into the blood” value is on record as “rapidly absorbed into the blood of rats”. Also, the “biologically active concentrations in the blood (plasma)” value with HIV-1 (HIV-1 syncytial plaque test) was “biologically active concentrations of the compound CP-51 were obtained in the blood (plasma)”. In data set [2], the IC50 is 11 µg/mL (≈ 20 µM). In the data set on Hepatitis B virus [3] (10 μM, in words), the “inhibitory activity against HBsAg synthesis” value is on record as “no inhibitory activity”. Besides, the “inhibitory activity against HBeAg and HBcAg (core and e antigen) syntheses” value in the data set with Hepatitis B virus [3] (in words) is “selective inhibitory activity; also recorded: inhibit the production of the HBV antigens core antigen and e antigen”. For the same compound, the “Cell toxicity (greater than 50% depression of dye uptake)” value in data set [4] is given as “did not occur”. Besides, the “% of Control Neutral Red Dye Uptake” value in data set [4] (human, hep-g2 cells, 216 h, 3 µM) is on record as 101 ± 1 % of Control. The cytotoxicity at 216 h, 30 µM in data set [5] is 4%. In data set [5], the cytotoxicity at 216 h, 100 µM is 29%. The viability at 216 h, 3 µM in data set [5] was 101 ± 1%. For the same compound, the viability at 216 h, 10 µM in data set [5] was found to be 100 ± 4%. The viability at 216 h, 30 µM in data set [5] was determined as 96 ± 2%. Also, in data set [5], the viability at 216 h, 100 µM was determined as 71 ± 1%.

As for `Nc1ccn([C@H]2CC[C@@H](CO)O2)c(=O)n1` [2',3'-dideoxycytidine, 2', 3'-dideoxycytidine, reference compound], the “effect on HBV-induced DNA and RNA syntheses” value in the data set on Hepatitis B virus [1] (10 μM, in words) was “inhibited HBV-induced DNA synthesis but not RNA syntheses”. Further, the mrna remaining at 10 µM with Hepatitis B virus [1] (HepG2, 216 h, read-out: Relative Level of 2.1 Kb RNA) came out at 105%; with Hepatitis B virus [1] (HepG2, 216 h, read-out: Relative Level of 3.6 Kb RNA), 92%; with Hepatitis B virus [1] (HepG2, 216 h, read-out: Relative Level of Total RNA), 92%. For the same compound, the activity at 10 µM in the data set with Hepatitis B virus [1] (HepG2, 216 h, read-out: Relative Level of 3.2 Kb DNA) worked out at 46%; in the data set on Hepatitis B virus [1] (HepG2, 216 h, read-out: Relative Level of HBV RI), 6%; in the data set with Hepatitis B virus [1] (HepG2, 216 h, read-out: Relative Level of Virion DNA), 2%; in the data set with Hepatitis B virus [3] (read-out: Relative Levels of HBcAg), 102%; in the data set with Hepatitis B virus [3] (read-out: Relative Levels of HBeAg), 95%; in the data set with Hepatitis B virus [3] (read-out: Relative Levels of HBsAg), 96%. Also, the “inhibitory activity against HBV-induced antigen syntheses” value in the data set on Hepatitis B virus [3] (10 μM, in words) is “no inhibitory activity”. For the same compound, in data set [5], the viability at 216 h, 3 µM is 100 ± 1%. For the same compound, the viability at 216 h, 10 µM in data set [5] is 102 ± 1%. In data set [5], the viability at 216 h, 30 µM stood at 99 ± 2%. Further, the viability at 216 h, 100 µM in data set [5] was found to be 35 ± 2%.
